Data: patent US9796700B2 (Celgene CAR LLC, priority 2013, dated 2017)
Read-outs that look alike come from different tables or passages of the source.

Experiments:
[1] = test system: ERK1 phosphorylation of its substrate RSK in HT29 cells; assay: pRSK MSD Assay in HT29 cells; assay type: cell-based
Protocol: The protocol below describes an assay to measure the kinase activity of ERK1 to phosphorylate its substrate, RSK, in the presence of a test compound. This experiment was conducted using a Mesoscale Discovery plate. The day before the assay, HT29 cells were split and plated at 50,000 cells/well in complete growth media. After allowing cells to adhere, the media was removed and replaced with media containing 0.1% FBS and incubated overnight. Blank MDS plates were coated with 25 μl/well RSK capture antibody and incubated at 4° C. overnight. The next day, the media was removed and replaced with 100 μl of media containing a test compound and incubated for 120 minutes at 37° C. The media was removed and replaced with 55 μl of well lysis buffer with protease and phosphatase inhibitors provided in the kit, followed by incubation at 4° C. for 30 minutes. 50 μl of lysate was transferred to a blocked MSD plate, followed by incubation at room temperature for 2 hours under constant shaking. The plate was washed 3 times with MSD wash buffer (cat#R617TX), and 25 μl/well phospho-RSK (pRSK) detection antibody was added with an appropriate Sulfo-tagged anti-species detection antibody diluted in 1% BSA in MSD wash buffer. This mixture was incubated for 1 hour at room temperature under constant shaking. The plate was washed 3 times, and 150 μl 1×MSD read buffer was added, followed by signal detection in an MSD plate reader.

MEK1 activated ERK1 = MEK1 activated ERK1 (Homo sapiens (Human), UniProt P27361); assay: Omnia continuous-read kinase assay for potency against MEK1 activated ERK1; assay type: biochemical; conditions: MEK1 activated ERK1, WT, ATP at KM
Summary of the method: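 Apparent IC50 came from initial reaction slopes (RFU vs time) plotted against log inhibitor with a variable-slope fit. Reactions were started with ERK1 (4 nM final) added to 50 μM ATP, roughly at its appKM, and 10 μM Sox-conjugated ST17 peptide in 20 mM Tris pH 7.5, 5 mM MgCl2. Fluorescence was monitored every 71 seconds.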

Erk1 = Erk1 (Homo sapiens (Human), UniProt P27361); assay: Protein Mass Modification Assay (intact protein MALDI); assay type: binding
Summary of the method: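 Human Erk1 was incubated 60 min at room temperature with a 10-fold molar excess of compound, then analysed as intact protein by MALDI with sinapinic acid matrix. The centroid mass shift versus untreated protein was divided by compound molecular weight to give percent modified protein.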

[2] = Homo sapiens, HT-29, HT29 cells, read-out: ERK1 PRSK MSD HT29 EC50
[3] = HT29 cells, read-out: ERK1 PRSK MSD HT29 EC50

MEK1 activated ERK1, sequence (P27361 whole entry): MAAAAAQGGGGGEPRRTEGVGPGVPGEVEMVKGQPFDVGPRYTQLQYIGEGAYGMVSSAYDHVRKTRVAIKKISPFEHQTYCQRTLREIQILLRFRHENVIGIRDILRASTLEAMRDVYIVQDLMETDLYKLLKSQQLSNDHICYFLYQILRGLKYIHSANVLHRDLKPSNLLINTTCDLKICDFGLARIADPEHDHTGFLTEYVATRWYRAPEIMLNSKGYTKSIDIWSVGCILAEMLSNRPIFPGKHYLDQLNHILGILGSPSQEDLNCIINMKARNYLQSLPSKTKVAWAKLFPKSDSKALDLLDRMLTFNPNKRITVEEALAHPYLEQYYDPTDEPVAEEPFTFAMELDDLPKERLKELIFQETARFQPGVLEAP
Erk1, sequence (P27361 whole entry, looked up): as the sequence (P27361 whole entry) above

SMILES | EC50 [1, 2] [nM] | IC50 (MEK1 activated ERK1) [nM] | ERK1 Mass Mod (%) (Erk1) | EC50 [1, 3] [nM] | EC50 ([1]; Homo sapiens, HT-29, read-out: ERK1 PRSK MSD HT29 EC50 (nM)) [nM]
C=CC(=O)Nc1ccccc1Nc1nc(N[C@H]2CC[C@@H](F)CC2)ncc1C(F)(F)F [Compound I-110, N-(2-((2-(cis-(4-fluorocyclohexyl)amino)-5-(trifluoromethyl)pyrimidin-4-yl)amino)phenyl)acrylamide] | 101 to 500 | 101 to 500 | E (provided a mass modification of ≧70%) |  | 
C=CC(=O)Nc1cc(C)ccc1Nc1nc(Nc2nc(OC)ncc2Cl)ncc1C(F)(F)F [Compound I-344, N-(2-((2-((5-chloro-2-methoxypyrimidin-4-yl)amino)-5-(trifluoromethyl)pyrimidin-4-yl)amino)-5-methylphenyl)acrylamide] | < 100 | < 100 | E (provided a mass modification of ≧70%) |  | 
CC(C)=CC(=O)c1ccccc1Oc1nc(Nc2ccc(F)cc2C)ncc1C(N)=O [Compound I-272, 2-((4-fluoro-2-methylphenyl)amino)-4-(2-(3-methylbut-2-enoyl)phenoxy)pyrimidine-5-carboxamide] | > 1000 | > 1000 | G (proived a mass modification ≦30%) |  | 
C=CC(=O)Nc1cc(Cl)ccc1Nc1nc(Nc2cc(OC)ncc2C)ncc1Cl [Compound I-248, N-(5-chloro-2-((5-chloro-2-((2-methoxy-5-methylpyridin-4-yl)amino)pyrimidin-4-yl)amino)phenyl)acrylamide] | 101 to 500 | < 100 | E (provided a mass modification of ≧70%) |  | 
C=CC(=O)Nc1cc(C)ccc1Nc1nc(Nc2cnnc(Cl)c2)ncc1C(F)(F)F [Compound I-331, N-(2-((2-((6-chloropyridazin-4-yl)amino)-5-(trifluoromethyl)pyrimidin-4-yl)amino)-5-methylphenyl)acrylamide] | 101 to 500 | > 1000 | E (provided a mass modification of ≧70%) |  | 
C=CC(=O)Nc1ccccc1Nc1nc(NC2CCC(=O)CC2)ncc1C(F)(F)F [Compound I-23, N-(2-((2-((4-Oxocyclohexyl)amino)-5-(trifluoromethyl)pyrimidin-4-yl)amino)phenyl)acrylamide] | 101 to 500 | < 100 | E (provided a mass modification of ≧70%) |  | 
C=C(C)S(=O)(=O)Nc1cc(F)ccc1Nc1nc(Nc2cc(C(N)=O)ccc2C)ncc1C(F)(F)F [Compound I-87, 3-((4-((4-Fluoro-2-(1-methylvinylsulfonamido)phenyl)amino)-5-(trifluoromethyl)pyrimidin-2-yl)amino)-4-methylbenzamide] | 101 to 500 |  | G (proived a mass modification ≦30%) |  | 
C=CC(=O)Nc1ccccc1Nc1nc(Nc2cncc(C(N)=O)c2)ncc1C(F)(F)F [Compound I-63, 5-((4-((2-Acrylamidophenyl)amino)-5-(trifluoromethyl)pyrimidin-2-yl)amino)nicotinamide] | 101 to 500 |  | E (provided a mass modification of ≧70%) |  | 
C=CC(=O)Nc1ccccc1Nc1nc(Nc2c[nH]nc2C)ncc1C(F)(F)F [Compound I-330, N-(2-((2-((3-methyl-1H-pyrazol-4-yl)amino)-5-(trifluoromethyl)pyrimidin-4-yl)amino)phenyl)acrylamide] | > 1000 | > 1000 | E (provided a mass modification of ≧70%) |  | 
C=CC(=O)Nc1ccccc1Nc1nc(NC2CCOCC2)ncc1Cl [Compound I-108, N-(2-((5-chloro-2-((tetrahydro-2H-pyran-4-yl)amino)pyrimidin-4-yl)amino)phenyl) acrylamide] | < 100 | < 100 | E (provided a mass modification of ≧70%) |  | 
C=CC(=O)Nc1ccccc1Nc1nc(N[C@H]2CC[C@@H](O)CC2)ncc1C(F)(F)F [Compound I-109, N-(2-((2-(cis-(4-hydroxycyclohexyl)amino)-5-(trifluoromethyl)pyrimidin-4-yl)amino)phenyl) acrylamide] |  |  | E (provided a mass modification of ≧70%) | > 1000 | 
C=CC(=O)Nc1cc(C)ccc1Nc1nc(Nc2cc(OC)ncn2)ncc1C(F)(F)F [Compound I-348, N-(2-((2-((6-methoxypyrimidin-4-yl)amino)-5-(trifluoromethyl)pyrimidin-4-yl)amino)-5-methylphenyl)acrylamide] | 501 to 999 | > 1000 | G (proived a mass modification ≦30%) |  | 
CCC(=O)Nc1cc(C)ccc1Nc1nc(Nc2cc(OC)ncc2C)ncc1C(F)(F)F [Compound I-352, N-(2-((2-((2-methoxy-5-methylpyridin-4-yl)amino)-5-(trifluoromethyl)pyrimidin-4-yl)amino)-5-methylphenyl)propionamide] | > 1000 | > 1000 | G (proived a mass modification ≦30%) |  | 
C=CC(=O)Nc1cc(C)ccc1Nc1nc(N[C@H]2CCN(S(=O)(=O)C=C)C2)ncc1C(F)(F)F [Compound I-279, (S)—N-(5-Methyl-2-((5-(trifluoromethyl)-2-((1-(vinylsulfonyl)pyrrolidin-3-yl)amino)pyrimidin-4-yl)amino)phenyl)acrylamide] | > 1000 |  | E (provided a mass modification of ≧70%) |  | 
C=CC(=O)Nc1cc(C)ccc1Nc1nc(Nc2cc(OC)cc(OC)c2)ncc1C(F)(F)F [Compound I-339, N-(2-((2-((3,5-dimethoxyphenyl)amino)-5-(trifluoromethyl)pyrimidin-4-yl)amino)-5-methylphenyl)acrylamide] | 101 to 500 | > 1000 | E (provided a mass modification of ≧70%) |  | 
C=CC(=O)Nc1ccccc1Nc1nc(N[C@@H]2CCC[C@H](C(=O)O)C2)ncc1Cl (racemic) [Compound I-133, Rac-3-((4-((2-acrylamidophenyl)amino)-5-chloropyrimidin-2-yl)amino)-cis-cyclohexanecarboxylic acid] | > 1000 |  | E (provided a mass modification of ≧70%) |  | 
COc1cc(Nc2ncc(C(F)(F)F)c(Nc3ccc(C)cc3N)n2)c(C)cn1 [Compound I-353, N^4-(2-amino-4-methylphenyl)-N^2-(2-methoxy-5-methylpyridin-4-yl)-5-(trifluoromethyl)pyrimidine-2,4-diamine] | > 1000 | > 1000 | G (proived a mass modification ≦30%) |  | 
CCC(=O)Nc1ccccc1Nc1nc(Nc2ccc(N(CC)C(C)=O)cc2C#N)ncc1Cl [Compound I-316, N-(2-((5-chloro-2-((2-cyano-4-(N-ethylacetamido)phenyl)amino)pyrimidin-4-yl)amino)phenyl)propionamide] | > 1000 | > 1000 |  |  | 
C=CC(=O)Nc1ccccc1Nc1nc(N[C@H]2CC[C@H](O)CC2)ncc1C(F)(F)F [Compound I-1, Trans-N-(2-((2-((4-hydroxycyclohexyl)amino)-5-(trifluoromethyl)pyrimidin-4-yl)amino)phenyl)acrylamide] |  |  | G (proived a mass modification ≦30%) | 101 to 500 | 
C=CC(=O)Nc1cc(C)ccc1Nc1nc(Nc2cc(OC)nc(OC)c2)ncc1C(F)(F)F [Compound I-96] |  |  | E (key: E: provided a mass modification of ≧70%; F: provided a mass modification of 31-69%; G: proived a mass modification ≦30%) |  | < 100
C=CC(=O)Nc1ccccc1Nc1nc(N[C@H]2CC[C@H](O)CC2)ncc1Cl [Compound I-101] | 101 to 500 |  | E (provided a mass modification of ≧70%) |  | 
